The results in this text go back to ChEMBL document CHEMBL1201862, “PubChem BioAssay data set” (2004).

Some test systems named below: HOP-92; SN12C; MOLT-4; A549; OVCAR-5; NCI/ADR-RES; DU-145; MDA-MB-435; SF-268; HL-60; UO-31; HCT-116; IGROV-1; A498; OVCAR-4; KM12; HOP-62; HCC 2998; MDA-MB-231; SF-295.
Holding throughout (test): NCI anticancer screen, dose series, 48 h

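Each compound was tested at five concentrations against cells in 96-well plates for 48 hours. GI50: concentration for 50% inhibition of growth.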 Active and inactive are the calls of the source. No stated cut-off is given here; in the data, active = GI50 up to about 1.1 µM and inactive = higher. Where a SMILES comes first, the peptide text is derived from it. The star is where a group is joined. Cbz = O=C(OCc1ccccc1)*; Boc = CC(C)(C)OC(=O)*; OSu = O=C1CCC(=O)N1O*; Bn = c1ccc(C*)cc1

`O=C(N/N=C/c1ccco1)c1cc(I)cc(I)c1O`: the GI50 is 15.6 µM (inactive) in the assay on HOP-92; 9.06 µM (inactive) in the assay on SN12C; 26.3 µM (inactive) in the assay on MOLT-4; 31.9 µM (inactive) in the assay on A549; 7.85 µM (inactive) in the assay with OVCAR-5; 20.7 µM (inactive) with NCI/ADR-RES. Moreover, the GI50 in the assay with DU-145 is 23.4 µM (inactive); in the assay on MDA-MB-435, 16.9 µM (inactive); in the assay on SF-268 it was > 50 µM (inactive); with HL-60 it was 10.5 µM (inactive); with UO-31, 24 µM (inactive); in the assay on HCT-116, 23.5 µM (inactive). The GI50 is 15.8 µM (inactive) with IGROV-1, 12.9 µM (inactive) in the assay on A498 and 35.8 µM (inactive) in the assay with OVCAR-4.
As to `CC(NC(=O)OC(C)(C)C)C(=O)NC(Cc1ccccc1)C(=O)NCC(=O)Oc1c(Cl)c(Cl)c(Cl)c(Cl)c1Cl` (stereo not drawn), the GI50 with KM12 was 25 µM (inactive); in the assay on HOP-92 it was 12.5 µM (inactive); in the assay on SN12C it was 14.5 µM (inactive); with HOP-62, 18.7 µM (inactive); with HCC 2998, 15.3 µM (inactive); in the assay on MOLT-4 it was 23.2 µM (inactive). Moreover, the GI50 in the assay on A549 is 19.5 µM (inactive); with OVCAR-5, 19 µM (inactive); with HL-60 it was 24.7 µM (inactive); in the assay on UO-31 it was 14.2 µM (inactive); with HCT-116, 19.6 µM (inactive); with IGROV-1, 22.8 µM (inactive). Further, the GI50 is 16.6 µM (inactive) in the assay on MDA-MB-231 and 21.2 µM (inactive) with A498.
In the case of `O=C(/C=C/c1ccccc1)CSc1nc[nH]n1`, the GI50 is > 100 µM (inactive) in the assay on KM12; > 100 µM (inactive) in the assay with SN12C; > 100 µM (inactive) in the assay with HOP-62; > 100 µM (inactive) in the assay with HCC 2998; 63.2 µM (inactive) in the assay on MOLT-4; > 100 µM (inactive) with A549. Besides, the GI50 with OVCAR-5 is > 100 µM (inactive); in the assay on NCI/ADR-RES, > 100 µM (inactive); in the assay with SF-295, 81.1 µM (inactive); with DU-145, > 100 µM (inactive); with SF-268, > 100 µM (inactive); in the assay on HL-60, 45.9 µM (inactive). Further, the GI50 in the assay with UO-31 was > 100 µM (inactive); in the assay with HCT-116, 33 µM (inactive); in the assay with IGROV-1, > 100 µM (inactive); in the assay on OVCAR-4 it was > 100 µM (inactive).
As to `CN1CCN(/C(N)=C(\C#N)C(=O)Nc2ccc(Cl)cc2)CC1`, the GI50 in the assay with KM12 was 59 µM (inactive); in the assay with HOP-92, > 100 µM (inactive); with SN12C it was > 100 µM (inactive); in the assay with HOP-62, > 100 µM (inactive); in the assay with HCC 2998, 59.6 µM (inactive); in the assay with MOLT-4, 54.8 µM (inactive). For the same molecule, the GI50 in the assay on A549 is > 100 µM (inactive); with OVCAR-5, > 100 µM (inactive); in the assay on NCI/ADR-RES, 87.9 µM (inactive); in the assay on SF-295, 75.7 µM (inactive); in the assay with DU-145 it was 79.3 µM (inactive); in the assay on MDA-MB-435, 37.5 µM (inactive). The GI50 in the assay with UO-31 is 55.1 µM (inactive); in the assay with HCT-116 it was 41.6 µM (inactive); with IGROV-1, 99.1 µM (inactive); with A498 it was 40.4 µM (inactive).
Turning to `C=CSCCC(N)C(=O)O` (stereo not drawn), the GI50 in the assay with KM12, with HOP-92, in the assay with SN12C, with HOP-62, with HCC 2998 and in the assay on MOLT-4 was > 100 µM (inactive) each time. Moreover, the GI50 in the assay with A549, with OVCAR-5, with SF-295, in the assay with SF-268, in the assay with HL-60 and with UO-31 was > 100 µM (inactive) throughout. Further, the GI50 in the assay on HCT-116, in the assay on IGROV-1, with A498 and with OVCAR-4 was > 100 µM (inactive) each time.
As for `O=C1/C(=N\O)C2CCC1C2` (stereo not drawn), the GI50 in the assay on KM12, in the assay on HOP-92, in the assay on SN12C, with HOP-62, in the assay with HCC 2998 and in the assay with MOLT-4 was > 100 µM (inactive) throughout. For the same molecule, the GI50 in the assay with A549, in the assay with OVCAR-5, with SF-295, with SF-268, with HL-60 and in the assay with UO-31 was > 100 µM (inactive) each time. Further, the GI50 in the assay on HCT-116, in the assay with IGROV-1, in the assay on A498 and with OVCAR-4 was > 100 µM (inactive) in each case.
In the case of `O=S(=O)(O)c1cc(/N=N/c2c(O)ccc3ccccc23)c2c(S(=O)(=O)O)cccc2c1`, the GI50 with KM12, in the assay on HOP-92, in the assay with HOP-62, in the assay on HCC 2998, in the assay on MOLT-4 and in the assay on A549 was > 100 µM (inactive) in each case. The GI50 in the assay with OVCAR-5, with NCI/ADR-RES, with SF-295, with MDA-MB-435, in the assay with SF-268 and with HL-60 was > 100 µM (inactive) each time. In addition, the GI50 with UO-31, in the assay on HCT-116, in the assay on IGROV-1, with MDA-MB-231 and in the assay with OVCAR-4 was > 100 µM (inactive) throughout.
In the case of `CCN(CC)CCCNc1ccc2nc(C)n3c4ccc(O)cc4c(=O)c1c23`, the GI50 is 3.61 µM (inactive) with KM12; 2.89 µM (inactive) in the assay on HOP-92; 5.15 µM (inactive) in the assay on SN12C; 3.21 µM (inactive) with HOP-62; 7.43 µM (inactive) in the assay with HCC 2998; 0.301 µM (active) with MOLT-4. Besides, the GI50 was 2.11 µM (inactive) in the assay with A549; 6.22 µM (inactive) in the assay with OVCAR-5; 12.6 µM (inactive) in the assay with NCI/ADR-RES; 5.16 µM (inactive) in the assay on SF-295; 5.46 µM (inactive) in the assay with DU-145; 9.89 µM (inactive) in the assay on MDA-MB-435. The GI50 is 1.96 µM (inactive) in the assay on SF-268; 1.61 µM (inactive) with HL-60; 5.89 µM (inactive) in the assay with UO-31; 0.713 µM (active) with HCT-116; 1.64 µM (inactive) in the assay on IGROV-1; 11.9 µM (inactive) in the assay on A498. Moreover, in the assay with OVCAR-4, the GI50 is 4.65 µM (inactive).
On to `CC(C)(C)OC(=O)NC(Cc1ccc(OCc2ccccc2)cc1)C(=O)NC(CCCCNC(=O)OCc1ccccc1)C(=O)ON1C(=O)CCC1=O` (stereo not drawn) (Boc-Tyr(Bn)-Lys(Cbz)-OSu; configuration not given here), for which the GI50 with KM12 is 23.9 µM (inactive); in the assay with HOP-92, > 10 µM (inactive); in the assay with SN12C, 16.7 µM (inactive); with HOP-62, 19.5 µM (inactive); in the assay with HCC 2998, 16.5 µM (inactive); in the assay with MOLT-4 it was 20 µM (inactive). Besides, the GI50 in the assay on A549 was 34.1 µM (inactive); in the assay on OVCAR-5, 31.3 µM (inactive); with HL-60, 22 µM (inactive); in the assay with UO-31, 21.6 µM (inactive); in the assay on HCT-116, 19.9 µM (inactive); in the assay with IGROV-1, 16.8 µM (inactive). The GI50 is 22.3 µM (inactive) with MDA-MB-231 and 48.3 µM (inactive) in the assay on A498.
